Like-named read-outs stand apart in the source and are kept apart here.
What was measured:
[1] = tested on: JAK2 independent human chronic myelogenous leukaemia cell line K562; experiment: Cell proliferation assay (CellTiter-Glo, 72 hours), K562; type: cell-based; conditions: K562 cells, read-out: K-562 IC50
Method: (§1) the JAK2 dependent human megakaryoblastic leukemia cell line SET-2 (DSMZ, Braunschweig GERMANY), and JAK2 independent human chronic myelogenous leukaemia cell line K562 (ECACC, Wiltshire, UK) were cultured in RPMI-1640 medium-Glutamax (Gibco BRL, Gaithesburg, Md., USA), supplemented with 10% fetal bovine serum (FBS) at 37° C. and 5% CO2.
(§2) Approximately 5×10^3 cells were plated into 384 microtiter plate wells in 50 μL of growth media with different concentrations of inhibitors. The cells were incubated at 37° C. and 5% CO2 for 72 hours, than the plates were processed using CellTiter-Glo assay (Promega, Madison, Wis., USA) following the manufacturer's instruction. Briefly 25 μL/well reagent solution are added to each wells and after 5 minutes shacking micro-plates are read by Envision luminometer (PerkinElmer, Waltham, Mass., USA).
(§3) Data are analyzed by Symix Assay Explorer software (Symix Technologies Inc.) that provides sigmoidal fitting algorithm of the 8 points dilutions curves for […] determination.

[2] = tested on: JAK2 dependent human megakaryoblastic leukemia cell line SET-2; experiment: Cell proliferation assay (CellTiter-Glo, 72 hours), SET-2; type: cell-based; conditions: for IC50: Homo sapiens, read-out: SET-2 IC50; for Ratio K-562 (IC50)/SET-2 (IC50): selectivity for JAK2 dependent SET-2 vs JAK2 independent K-562 cell line
Method: as §1, §2, §3

JAK2 kinase domain = molecular target: T1, JAK2 kinase domain (Homo sapiens, UniProt O60674); experiment: Biochemical assay for inhibitors of JAK2 kinase activity (33P-γ-ATP, dowex resin); conditions: 1 nM enzyme, 60 μM ATP, 60 minutes at room temperature
T1 construct: commercially available JAK2 kinase domain (Invitrogen, Eugene, Oreg.); purchased Invitrogen, Eugene, Oreg
Method: Specific JAK2, JAK1 or JAK3 peptide substrates are trans-phosphorylated by JAK kinases in the presence of ATP traced with 33P-γ-ATP. At the end of the phosphorylation reaction, the unreacted ATP, cold and radioactive, is captured by an excess of dowex ion exchange resin that eventually settles by gravity to the bottom of the reaction plate. The supernatant is subsequently withdrawn and transferred into a counting plate that is then evaluated by β-counting.
500 g of wet resin (SIGMA, custom prepared resin DOWEX 1×8 200-400 mesh, 2.5 Kg) is weighed out and diluted 2 to 1 in 150 mM sodium formate, pH 3.00. The resin is allowed to settle overnight and then the supernatant is discarded. After three washes as above over a couple of days, the resin is allowed to settle and two volumes (with respect to the resin volume) of 150 mM sodium formate buffer are added.
Kinase buffer was composed of 50 mM HEPES pH 7.5 containing 10 mM MgCl2, 2.5 mM DTT, 10 μM Na3VO4 and 0.2 mg/mL BSA.
The peptidic substrate was purchased from American Peptide Company (Sunnyvale, Calif.).
An automated station for serial dilutions (Biomek FX, Beckman) is used for producing 1:3 dilutions in 100% DMSO, from line A1 to A10, and for all the compounds in the column.
At the start of the run, the robot aspirates 5 μL of ATP mix, makes an air gap inside the tips (3 μl) and aspirates 5 μL of JAK2 mix. The following dispensation into the plates plus 3 cycles of mixing, done by the robot itself, starts the kinase reaction. At this point, the correct concentrations are restored for all the reagents. The robot incubates the plates for 60 minutes at room temperature, and then stops the reaction by pipetting 60 μL of dowex resin suspension into the reaction mix. In order to avoid tip clogging, wide bore tips are used to dispense the resin suspension. Three cycles of mixing are done immediately after the addition of the resin. Another mixing cycle is performed after all the plates are stopped, this time using normal tips: the plates are then allowed to rest for about one hour in order to allow resin sedimentation. At this point, 27 μL of the supernatant are transferred into 384-Optiplates (Perkin-Elmer), with 50 μL of Microscint 40 (Perkin-Elmer); after 5 min of orbital shaking the plates are read on a Perkin-Elmer Top Count radioactivity counter.
Data are analyzed by an internally customized version of the SW package “Assay Explorer” that provides sigmoidal fitting of the ten-dilutions curves for IC50 determination in the secondary assays/hit confirmation routines.

T1 sequence (O60674 849-1124 limits assumed): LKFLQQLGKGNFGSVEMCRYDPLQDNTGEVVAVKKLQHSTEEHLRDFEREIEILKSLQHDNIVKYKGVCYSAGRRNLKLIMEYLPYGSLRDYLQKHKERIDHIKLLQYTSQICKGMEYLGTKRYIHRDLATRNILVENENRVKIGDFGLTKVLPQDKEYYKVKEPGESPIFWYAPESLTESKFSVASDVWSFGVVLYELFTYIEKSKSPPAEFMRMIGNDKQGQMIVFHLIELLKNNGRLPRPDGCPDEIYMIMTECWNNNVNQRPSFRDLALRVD

SMILES | IC50 [1] [µM] | IC50 ([2]; SET-2 cells, 72 hours) [nM] | Ratio K-562 (IC50)/SET-2 (IC50) [2] | IC50 (JAK2 kinase domain) [nM] | IC50 ([2]; SET-2, 72 h) [nM]
CNC(=O)c1cc(-c2ccnc(N)n2)[nH]c1-c1cc(C(F)(F)F)ccc1Cl [Cmpd. 39, 5-(2-Aminopyrimidin-4-yl)-2-[2-chloro-5-(trifluoromethyl)phenyl]-N-methyl-1H-pyrrole-3-carboxamide] | > 10 | 630 | >16 |  | 
NC(=O)c1cc(-c2ccnc(N)n2)[nH]c1-c1cc(C(F)(F)F)ccc1Cl [Cmpd. 1, 5-(2-Aminopyrimidin-4-yl)-2-[2-chloro-5-(trifluoromethyl)phenyl]-1H-pyrrole-3-carboxamide] | 7.5 | 570 | 13 | 8 | 
CCNC(=O)c1cc(-c2ccnc(N)n2)[nH]c1-c1cc(Cl)ccc1CC [Cmpd. 36, 5-(2-Aminopyrimidin-4-yl)-2-(5-chloro-2-ethylphenyl)-N-ethyl-1H-pyrrole-3-carboxamide] | > 10 | 610 | >16 | 13 | 
NC(=O)c1cc(-c2ccnc(N)n2)[nH]c1-c1cc(Cl)ccc1Cl [Cmpd. 2, 5-(2-Aminopyrimidin-4-yl)-2-(2,5-dichlorophenyl)-1H-pyrrole-3-carboxamide] | 6.86 | 700 | 9.8 | 12 | 
CCc1ccc(C(F)(F)F)cc1-c1[nH]c(-c2ccnc(N)n2)cc1C(=O)NC [Cmpd. 51, 5-(2-Aminopyrimidin-4-yl)-2-[2-ethyl-5-(trifluoromethyl)phenyl]-N-methyl-1H-pyrrole-3-carboxamide] | > 10 | 310 | >20 | 2 | 
CCc1ccc(Cl)cc1-c1[nH]c(-c2ccnc(N)n2)cc1C(=O)NC [Cmpd. 35, 5-(2-Aminopyrimidin-4-yl)-2-(5-chloro-2-ethylphenyl)-N-methyl-1H-pyrrole-3-carboxamide] | > 10 | 490 | >20 | 9 | 
Cc1ccc(Cl)cc1-c1[nH]c(-c2ccnc(N)n2)cc1C(N)=O [Ref. cmpd. (F25), 5-(2-amino-pyrimidin-4-yl)-2-(5-chloro-2-methyl-phenyl)-1H-pyrrole-3-carboxamide, reference compound] | 2 |  |  |  | 430
CCc1ccc(Cl)cc1-c1[nH]c(-c2ccnc(N)n2)cc1C(N)=O [Cmpd. 5, 5-(2-Aminopyrimidin-4-yl)-2-(5-chloro-2-ethylphenyl)-1H-pyrrole-3-carboxamide] | 5.32 |  |  |  | 210
CNc1nccc(-c2cc(C(N)=O)c(-c3cc(Cl)ccc3C)[nH]2)n1 [Cmpd. 42, 2-(5-Chloro-2-methylphenyl)-5-[2-(methylamino)pyrimidin-4-yl]-1H-pyrrole-3-carboxamide] | > 10 |  |  |  | 
CCc1ccc(C(F)(F)F)cc1-c1[nH]c(-c2ccnc(N)n2)cc1C(N)=O [Cmpd. 16, 5-(2-Aminopyrimidin-4-yl)-2-[2-ethyl-5-(trifluoromethyl)phenyl]-1H-pyrrole-3-carboxamide] | 3.68 | 390 | 9.43 | 2 | 
